These results are taken from patent publication US9725490B2, “ERAP1-derived peptide and use thereof” (TOKUSHIMA UNIVERSITY, priority 2011, dated 2017).

In data set [1] the test system is transcriptional activity of ERα (ERE). As to the kind of experiment: ERE-luciferase reporter assay in MCF-7 cells. It is filed as cell-based, human. The settings on record: 10 nM E2 24 hours. As for the experimental part: FIG. 3-2 is a diagram illustrating promotion effect of PHB2 nuclear translocation and suppression effect of the transcriptional activation of ER by ERAP1-peptide treatment. (C) illustrates representative images of stained immune cells, showing the localization of the ERAP1-peptide (HA-tagged ERAP1-peptide) and PHB2. MCF-7 cells were treated with 10 μM HA-tagged ERAP1-peptide for 24 hours in the presence or in the absence of 10 nM E2. After the immobilization, the cells were subjected to immunonfluorescent staining using an anti-HA antibody, an anti-PHB2 antibody and DAPI (for discriminating the nucleus). The arrow indicates the nuclear-translocated ERAP1-peptide. […] Then, immediately, the cells were stimulated with 10 nM E2 for 24 hours. TAM indicates the tamoxifen treatment.
(§1) FIG. 3-3 is as diagram illustrating the results of the luciferase assay by which the inhibition effect of the ERAP1-peptide was evaluated. MCF-7 cells temporarily transfected with an ERE-luciferase reporter vector (F) or an AP-1-luciferase reporter vector (F) were treated with the ERAP1-peptide, the scramble peptide or the mutant peptide in the concentrations shown in the […]. Then, immediately, the cells were stimulated with 10 nM E2 for 24 hours. TAM indicates the tamoxifen treatment.
(§2) FIG. 4-3 is a diagram illustrating that the ERAP1-peptide promotes nuclear translocation of PHB2. (C) and (D) are figures that show the results of the luciferase assay by which the inhibition effect of the ERAP1-peptide on the ERα transcriptional activity was evaluated. MCF-7 cells temporarily transfected with an ERE-luciferase reporter vector (C) or an AP-1-luciferase reporter vector (D) were treated with the ERAP1-peptide in the concentrations shown in the figure or 10 nM tamoxifen. Then, immediately, the cells were stimulated with 10 nM E2 thr 24 hours.
(§3) For ERE reporter assay, MCF-7 cells were transfected with ERE reporter (SABiosciences, Frederick, Md., USA) in accordance with the instruction of the manufacturer. For AP-1 reporter assay, MCF-7 cells were transfected with AP-1 reporter (mouse IL-11 promoter comprising two tandem AP-1 sites subcloned into PGL2-basic vector), c-fos, c-Jun and pRL-TK as an internal standard. After 16 hours from the transfection, the culture medium was exchanged with an assay culture medium (Opti-MEM, 10% FBS, 0.1 mM NEAA, 0.1 mM Sodium pyruvate and 10 μg/ml insulin) After 24 hours from the transfection, the cells were treated with E2 and/or the ERAP1-peptide or 24 hours. The cells were harvested, and the activities of luciferase and Renilla-luciferase were evaluated using Promega dual luciferase reporter assay (Tokyo, Japan). In consideration of the transfection efficiency, all of the data were standardized by the activity of Renilla-luciferase.

For data set [2], the system named is transcriptional activity of ERα (AP-1). The experiment in a line: AP-1-luciferase reporter assay in MCF-7 cells. The data set is classed as cell-based, human. Particulars: 10 nM E2 24 hours. As for the experimental part: as §1, §2, §3
The next data set concerns ERα phosphorylation. As to the kind of experiment: E2-induced ERα phosphorylation, Western blotting, MCF-7. The data set is classed as cell-based, human. The settings on record: 3 hours to 24 hours after E2.
A further data set deals with KPL-3C tumor. The experiment in a line: Inhibition of tumor proliferation in vivo, KPL-3C orthotopic transplant. Also noted: species or system BALB/c nude mouse. Particulars: for Ser39 phosphorylation of PHB2/REA in the tumor: 14 mg/kg; for antitumor effect (tumor volume): E2 6 μg/day, 2 weeks. How it is done: FIG. 11-1 is a diagram illustrating that the ERAP1-peptide inhibits tumor proliferation in a mouse orthotopically transplanted with human breast cancer. (A) and (B) show the influence of the ERAP1-peptide on the tumor volume. […] were subcutaneously transplanted into the breast fat body of as BALB/c nude mouse. The treatment test (5 individuals/group) was initiated (day 0) when the volume of the tumor in the absence E2 reached about 50-80 mm^3. The ERAP1-peptide (14, 35 and 70 mg/kg), the scramble peptide (14, 35 and 70 mg/kg) or tamoxifen (4 mg/kg) was administered every day by intraperitoneal injection to a cancerous mouse orthotopically transplanted with KPL-3C tumor. At the same time, E2 (6 μg/day) was administered subcutaneously every day.
FIG. 11-3 is a diagram illustrating that the ERAP1-peptide inhibits tumor proliferation in a mouse orthotopically transplanted with human breast cancer. […] The mouse was euthanatized on day 14, and the tumor was removed, and the expression level of the downstream genes in each tumor was obtained by quantitative RT-PCR.
FIG. 11-4 is a diagram illustrating that the ERAP1-peptide inhibits tumor proliferation in a mouse orthotopically transplanted with human breast cancer.
FIG. 27 is a diagram illustrating the inhibition effect of the ERAP1-peptide on tumor proliferation in a mouse orthotopically transplanted with human breast cancer. […] KPL-3 cells were subcutaneously transplanted into the breast fat body of a BALB/c nude mouse. The treatment test (5 individuals/group) was initiated (day 0) when the volume of the tumor reached about 50-80 mm^3 in the absence of E2. To a cancerous mouse orthotopically transplanted with KPL-3C tumor, the ERAP1-peptide (Peptide: 14 mg/kg) or the ERAP1-scramble peptide (scrPeptide: 14 mg/kg) was administered every day by intraperitoneal injection. At the same time, E2 (6 μg/day) was administered subcutaneously every day. On day 14, the mouse was euthanatized, and the tumor was removed, and phosphorylation of PHB2/REA (S39) in each tumor was evaluated with immunoblotting analysis. […] The tamoxifen-resistant MCF7-cells (Tam-R MCF-7) were subcutaneously transplanted into the breast fat body of a BALB/c nude mouse, and the treatment test (5 individuals/group) was initiated (day 0) when the volume of the tumor reached about 50-80 mm^3 in the presence of tamoxifen (37 ng/day, 1.85 μg/kg). To a cancerous mouse orthotopically transplanted with Tam-R MCF-7 tumor, the ERAP1-peptide (Peptide: 3.5, 7 and 14 mg/kg) or the ERAP1-scramble peptide (scrPeptide: 14 mg/kg) was administered every day by intraperitoneal injection. At the same time, E2 (6 μg/day) was administered subcutaneously every day: Tam-R MCF-7 heterotransplanted tumor at day 21 and the mean tumor volume±SE (n=5) are shown. *P<0.05, **P<0.01, ***P<0.001.
KPL-3C cell suspension (1×10^7 cells/mouse) was mixed with the same amount of Matrigel (BD). This mixture was injected into the breast fat body of 6 weeks old female BALB/c nude mouse (CLEA Japan, Tokyo, Japan). The mouse was kept in a sterile isolated facility with a cycle of 12 hour light period/12 hour dark period, and freely fed with rodent food and water. The tumor was grown over 1 week until the size thereof reached 50 to 80 mm^3 (calculated as ½×(width×length^2)). Then, the mice were randomly divided into nine treatment groups (5 individuals/group): no treatment group, 6 μg/day E2 treatment group, E2+0.28 mg/day ERAP1-peptide treatment group, E2+0.7 mg/day ERAP1-peptide treatment group, E2+1.4 mg/day ERAP1-peptide treatment group, E2+0.28 mg/day of the scramble peptide treatment group, E2+0.7 mg/day of the scramble peptide treatment group, E2+1.4 mg/day of the scramble peptide treatment group, and E2+83 μg/day tamoxifen treatment group. The mouse was treated every day with 6 μg/day E2 solution (100 μl 2.2×10^−4 M) on the neck skin. […]

[3] abbreviates: 14, 35, 70 mg/kg intraperitoneal every day.

Consider `CSCC[C@H](NC(=O)[C@H](CCC(N)=O)NC(=O)[C@H](CCCNC(=N)N)NC(=O)[C@H](CCCNC(=N)N)NC(=O)[C@H](CCCNC(=N)N)NC(=O)[C@H](CCCNC(=N)N)NC(=O)[C@H](CCCNC(=N)N)NC(=O)[C@H](CCCNC(=N)N)NC(=O)[C@H](CCCNC(=N)N)NC(=O)[C@H](CCCNC(=N)N)NC(=O)[C@H](CCCNC(=N)N)NC(=O)[C@H](CCCNC(=N)N)NC(=O)[C@@H](N)CCCNC(=N)N)C(=O)N[C@@H](CC(C)C)C(=O)N[C@@H](CO)C(=O)N[C@@H](CC(=O)O)C(=O)N[C@@H](CC(C)C)C(=O)N[C@H](C(=O)N[C@@H](CC(C)C)C(=O)N[C@@H](CCC(N)=O)C(=O)N[C@@H](CC(C)C)C(=O)N[C@@H](CCCNC(=N)N)C(=O)N[C@@H](CCC(N)=O)C(=O)N[C@@H](CCCNC(=N)N)C(=O)O)[C@@H](C)O` [ERAP1-peptide], for which, in data set [1], the “transcriptional activity of ERα in ERE” value is “suppressed the transcriptional activity of ERα”. Further, the “transcriptional activity of ERα in AP-1” value in data set [2] is listed as “suppressed the transcriptional activity of ERα”. In addition, the “E2-dependent phosphorylation of six sites of ERα” value with ERα phosphorylation is “suppressed to the same degree as that of no administration of E2”. In the data set on KPL-3C tumor (tumor removed day 14), the “Ser39 phosphorylation of PHB2/REA in the tumor” value was “phosphorylation of Ser39 of PHB21/REA was confirmed”; the “expressions of ERα target genes PS2, cyclin D1, C-Myc, SP-1 in the tumor” value is “completely suppressed”; the “phosphorylations of Akt and MAPK in the tumor” value is “suppression for the phosphorylations of the non-genomic activation signal routes, i.e., Akt and MAPK, was also confirmed”. Besides, in the data set with KPL-3C tumor (setting [3]), the “change of the body weight” value is listed as “change of the body weight was not recognized” and the “antitumor effect (tumor volume)” value is on record as “the antitumor effect was recognized”.

For the molecule “DRQLQLSTLQRML (SEQ ID NO: 28) (ERAP1-scramble peptide) [reference compound]”, in data set [1], the “transcriptional activity of ERα in ERE” value is “no change was recognized”. Also, the “transcriptional activity of ERα in AP-1” value in data set [2] is on record as “no change was recognized”. In addition, the “E2-dependent phosphorylation of six sites of ERα” value with ERα phosphorylation is on record as “the suppression effect was not recognized”. Also, in the data set with KPL-3C tumor (tumor removed day 14), the “Ser39 phosphorylation of PHB2/REA in the tumor” value is “the phosphorylation of PHB2/REA was not recognized” and the “expressions of ERα target genes PS2, cyclin D1, C-Myc, SP-1 in the tumor” value is reported as “suppression for the expression was not recognized”. In addition, in the data set on KPL-3C tumor (setting [3]), the “antitumor effect (tumor volume)” value was “significant tumor suppression effect was not recognized in any of the doses”.
